# Laboratory results: patent US11752125B2, “Anti-neuroinflammatory and protective compounds in Achillea fragrantissima” (THE STATE OF ISRAEL MINISTRY OF AGRICULTURE & RURAL …, priority 2013, dated 2023)
# Tested on: astrocytes
# Assay: H2O2-induced intracellular ROS levels in astrocytes (DCF-DA)
# Format: cell-based, rat
# Settings: for ability to reduce H2O2-induced ROS compared among TTF, quercetin and memantine: concentrations higher than 16 μM, ROS after 1 h, p>0.05
# Method: Intracellular ROS levels were detected using the non-fluorescent cell permeating compound, 2′7′-dichlorofluorescein diacetate (DCF-DA). DCF-DA is hydrolyzed by intracellular esterases and then oxidized by ROS to a fluorescent compound 2′-7′-DCF. Astrocytes were plated onto 24 wells plates (300,000 cells/well) and treated with DCF-DA (20 μM) for 30 min at 37° C. Following incubation with DCF-DA, cultures were rinsed twice with PBS and then re-suspended in DMEM containing 10% FBS, 8.4 mM HEPES, 2 mM glutamine, 100 U/ml penicillin, and 100 μg/mL streptomycin. ROS levels (fluorescence) at time zero were measured in a plate reader with excitation at 485 nm and emission at 520 nm. Astrocytes were then treated with TTF for 2 h before the addition of H2O2 and ROS levels (fluorescence) were measured in a plate reader with excitation at 485 nm and emission at 520 nm every hour for 4 h.
# 1. Produce a primary culture of rat brain glial cells according to the method described in “Protective effects of the essential oil of salvia fruticosa and its constituents on astrocytic susceptibility to hydrogen peroxide-induced cell death”. 2009. A. Elmann, S. Mordechay, M. Rindner, O. Larkov, M. Elkabetz, U. Ravid. Journal of agricultural and food chemistry. 57(15):6636-41; 2. Separate astrocytes from other cell types in the culture according to the method described in “Protective effects of the essential oil of salvia fruticosa and its constituents on astrocytic susceptibility to hydrogen peroxide-induced cell death”. 2009. A. Elmann, S. Mordechay, M. Rindner, O. Larkov, M. Elkabetz, U. Ravid. Journal of agricultural and food chemistry. 57(15):6636-41; 3. Plate astrocytes (300,000 cells/0.5 ml/well of 24 wells plate) and incubate (37° C., 5% CO2) for 24 hr as described in: Elmann, A., et al., (2011). Extract of Achillea fragrantissima downregulates ROS production and protects astrocytes from oxidative-stress-induced cell death. In: “Neurodegenerative Diseases—Processes, Prevention, Protection and Monitoring”, ISBN 978-953-307-485-6, (Raymond Chuen-Chung Chang, ed). […] Read fluorescence of “time 0” at 485 nm (Extinction) and 528 nm (Emmision). […] Read fluorescence at 1, 2, 3, 4 hr after the addition of H2O2 (Ex: 485 nm and Em: 528 nm). […]
# Astrocytes were pre-loaded with DCF-DA for 30 min and washed. […] ROS levels in astrocytes were measured 1 h and 4 h after the application of H2O2. […] H2O2 was added to the culture and the fluorescence intensity representing ROS levels was measured after 1 h. […]
# Preloaded astrocytes were then preincubated for 2 h with various concentrations of achillolide A or memantine. H2O2(175 μM) was added and the fluorescence intensity was measured […]. […]
Structure (SMILES),"ability to reduce H2O2-induced ROS compared among TTF, quercetin and memantine (2 h preincubation)",other results
C=C1CCC2=C(CO)C(=O)O[C@H]2/C=C(\C)[C@H](OC(C)=O)CC1=O [achillolide A],–,"effect on H2O2-induced ROS production (2 h preincubation, H2O2 175 μM, fluorescence 20 h later): attenuates"
"CC12CC3CC(C)(C1)CC(N)(C3)C2 [memantine, reference compound]",no significant difference,–
"O=c1c(O)c(-c2ccc(O)c(O)c2)oc2cc(O)cc(O)c12 [quercetin, 3,3′,4′,5,7-Pentahydroxyflavone, reference compound]",no significant difference,–
"COc1cc(-c2oc3cc(OC)c(OC)c(O)c3c(=O)c2O)ccc1O [TTF, 3,5,4′-trihydroxy-6,7,3′-trimethoxyflavone]",–,"effect on H2O2-induced intracellular ROS levels (8 μM, H2O2 175 μM, ROS measured 1 h and 4 h after H2O2): inhibited the H2O2-induced elevation of intracellular ROS"
